Where two headings read alike, the source gives them in different places.
Tests used:
[1] = tested on: HCT116 cells; assay: Cell viability assay (CellTiter-Glo, 72 hours) in HCT116 human colorectal cancer cells; type: cell-based; details: for IC50: Homo sapiens, HCT-116
Method in brief: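 2,000 cells/well adhered overnight, then compound added by digital dispenser with DMSO normalized to 0.5%. Viability read after 72 h at 37 °C by ATP-based CellTiter-Glo luminescence. IC50 from ten-point curves baseline-corrected to vehicle, five-parameter asymmetric least-squares fit.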

[2] = tested on: HCT116 NVL^P307T cells; assay: Cell viability in compound-resistant HCT116 NVL^P307T cells; type: cell-based, human; details: for IC50: Homo sapiens, HCT-116, NVL^P307T
From the text: Assessing the ability of NVL2 inhibitors to selectively kill WT versus NVL2^mut HCT116, block ribosome biogenesis and induce p53. We evaluate analogs in the colorectal cancer cell line HCT116 and already available compound-resistant clones. One clone has a mutation in the compound binding site (NVL2^R403W) and another clone (NVL2^P307T) has a mutation distant from the binding site that confers resistance through an unknown effect. Based on our results, analogs that kill HCT116 cells via NVL2 inhibition (on-target) have reduced potency in compound-resistant HCT116 mutant clones. Our analogs have been counter-screened against the NVL2 compound-resistant mutant clones with fold resistance range between 10-100 fold (most analogs 20-50 fold). This counter screen provides a strategy for identifying off-target toxins.
From whole exome sequencing, we identified variants that were acquired during IAA-induced mutagenesis with the hypothesis that genes related to resistance will be mutated in multiple clones. Two genes contained acquired variants in at least 3 of the 15 selected clones: TERT, mutated in 3 of 15 clones, and NVL, mutated in all 15 clones. […] In sum, 57 out of 59 unique clones harbored NVL mutations. The majority of mutations clustered within the D1 AAA+ ATPase domain and frequently affecting the same codons. To test whether these mutations are sufficient for MM017 resistance, we used CRISPR-Cas9 to knock-in two of the most resistant mutations (NVL^P307T, NVL^R403W) and a mutation with intermediate resistance (NVL^H304R). Transfection of cells with sgRNAs targeting these NVL residues in addition to a mutation-encoding repair template yielded an increased rate of resistance when compared to mock treatments.
HCT116 cells were transfected with TransIT-LT (Mirus #MIR2304) according to manufacturer's protocol with a guide RNA (either mock or NVL targeting) in the px330 vector (Addgene, #42230), and 10 nM single stranded deoxyoligonucleotide encoding a specific NVL mutation (see below for specific sequences). 72 hours after transfection, cells were selected by MM017 treatment. The resulting cells were evaluated by cresyl violet staining or collected and the relevant NVL mutations were analyzed by either amplicon or sanger sequencing.
Cell viability assay: In 96-well assay plates (Corning #2903), 2,000 cells were plated per well in 100 μL of medium and allowed to adhere overnight. The next day, compounds suspended in DMSO were dispensed to the assayed wells using a D300e Digital Dispenser (Tecan). All wells were normalized to 0.5% DMSO. 72 hours after incubation at 37° C. in 5% CO2, cell viability was assayed using an ATP-based luminescent viability assay, CellTiter-Glo (Promega #G8462). Substrate was mixed 1:1 with phosphate-buffered saline (PBS) supplemented with 1% Triton X-100, and 40 μL of this mixture was added to the assay wells. Plates were shaken on a microplate shaker for 10 minutes at room temperature. Luminescence (CellTiter-Glo) was recorded using a Synergy 2 microplate reader (BioTek). In Prism 9 software (GraphPad), ten-point dose response curves were plotted with baseline-correction to the vehicle control well, and IC50 values were calculated by curve fitting using asymmetric (five parameter), least squares fit.

[3] = tested on: iHCT116 cells; assay: Growth inhibition of engineered iHCT116 cells; type: cell-based; details: Homo sapiens
From the text: We recently described an isogenic forward genetic system to rapidly find mutations conferring resistance to compounds with anti-proliferative activity (32). This system uses an engineered colorectal cancer HCT116 cell line (iHCT116) in which the addition of indole acetic acid (IAA) initiates a ubiquitin-mediated degradation of the DNA mismatch repair protein MLH1, thereby providing a mechanism to temporarily increase mutation rates. We applied this strategy to MM017, a dibenzothiazepinone identified in a high-throughput small molecule screen for HCT116 cytotoxicity. […] We exposed barcoded iHCT116 cells, that had previously been cultured either with (Mutagenesis-on) or without IAA (Mutagenesis-off), to increasingly lethal doses of MM017.

[4] = tested on: 60S biogenesis; assay: SNAP-tag labeling of existing and newly synthesized eL36 (60S) and eS17 (40S); type: cell-based, human; details: 24 hours
From the text: The observed reduction in free 60S using polysome profiling could be the consequence of decreased 60S synthesis or accelerated 60S degradation, or a combination of the two. To distinguish between existing and newly synthesized 60S, we engineered HCT116 cells to express a C-terminal SNAP-tag on eL36, a ribosomal protein incorporated into the 60S subunit prior to NVL binding (39) or a control C-terminal SNAP-tag on a component of the small ribosomal subunit, eS17, to monitor 40S biogenesis (40). We first labeled existing eL36 or eS17 in cells with an Oregon green benzylguanine (green). Then, we treated cells for 24 hours with either vehicle or MM017 before adding a 647-SiR benzylguanine to label the pool of proteins synthesized over the 24-hour period and evaluated each polysome profile fraction for either existing or new proteins. […] MM017 treatment had no impact on the levels or fractionation pattern of existing eL36-SNAP.
Next, we examined the impact of MM017 on the subcellular localization of eL36-SNAP (60S) or eS17-SNAP (40S). As expected for mature ribosomes, existing eL36-SNAP was nearly completely cytoplasmic, and treatment with MM017 had no impact on its localization. In vehicle treated cells, newly synthesized eL36-SNAP was both nucleolar and cytoplasmic, reflecting its presence in pre-60S and mature ribosomes. […]

Row | IC50 ([1]; NVL^WT, read-out: IC50) [nM] | Structure (SMILES) | resistance of NVL^P307T cells [2] | IC50 [2] [nM] | IC50 [3] [nM] | effect on 40S subunits (eS17-SNAP) [4] | newly synthesized eL36-SNAP in polysome profile fractions [4] | potency relative to parent compound MM017 ([1]; HCT116 proliferation) | IC50 ([1]; read-out: IC50, HCT116 proliferation) [nM]
1 | 380 | COCCN1C(=O)c2ccccc2Sc2cc(NC(=O)c3ccoc3)ccc21 [MM017] | comparatively resistant | > 50000 | 460 | no impact on 40S subunits | reduced in the 60S, 80S, and polysome fractions | – | –
2 | – | CC#CCN1C(=O)c2ccc(F)cc2Sc2cc(NC(=O)c3ccc4oc(=O)n(C)c4c3)ccc21 [MM927, N-(10-(But-2-yn-1-yl)-3-fluoro-11-oxo-10,11-dihydrodibenzo[b,f][1,4]thiazepin-7-yl)-3-methyl-2-oxo-2,3-dihydrobenzo[d]oxazole-5-carboxamide] | relatively resistant | 1670 | – | – | – | five times more potent | 79
